Measured values as given in article PMC3165048 (Chemistry & biology, 2010).

Tested on: M. tuberculosis knock-in strains overexpressing MtMetAP1a or MtMetAP1c, wild-type and control strains
Format: cell-based, M. tuberculosis CDC1551

## O=C1C(Cl)=C(Cl)C(=O)c2ccccc21 [Compound 4, 2,3-dichloro-1,4-naphthoquinone]
  Growth of MtMetAP1a knock-in strain in the presence of inhibitor: gained resistance
  Growth of MtMetAP1c knock-in strain in the presence of inhibitor: gained resistance
  Growth of wild-type and control M. tuberculosis strains in the presence of inhibitor: inhibited
